Results taken from patent US11266643B2, “Triaryl compounds for treatment of PD-L1 diseases” (CHEMOCENTRYX, INC., priority 2019, dated 2022).
pIC50: −log10 of the molar value.

Molecular target: human PD-L1 (Homo sapiens (Human), UniProt Q9NZQ7)
Test: Enzyme-Linked Immunosorbent Assay (ELISA), PD-1/PD-L1 binding
In short: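 Plates coated with […] human PD-L1 overnight at 4° C, blocked, then 1:5 serial compound dilutions added with human PD-1 […] 0.31 μg/mL for 1 h at 37° C. Bound PD-1 detected with streptavidin-HRP and TMB (20 min, 37° C); absorbance read at 450 nm after H2SO4 stop.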

[1] = PD-1/PD-L1 ELISA, human PD-L1 coated plates, Table 1
[2] = human PD-1/PD-L1 ELISA, plates coated with human PD-L1
[3] = plate-coated human PD-L1, biotinylated Human PD-1, absorbance at 450 nm

Sequence of human PD-L1 (Q9NZQ7 19-239): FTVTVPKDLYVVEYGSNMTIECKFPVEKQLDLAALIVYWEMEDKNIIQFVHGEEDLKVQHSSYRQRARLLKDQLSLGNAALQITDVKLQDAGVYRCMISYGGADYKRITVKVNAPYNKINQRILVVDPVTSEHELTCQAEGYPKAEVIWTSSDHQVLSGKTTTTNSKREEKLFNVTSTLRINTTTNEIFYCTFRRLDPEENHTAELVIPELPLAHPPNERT

Compound	pIC50 [3]	other results
COc1cc(-c2cccc(-c3cccc(NC(=O)c4ccnc(N)c4)c3C)c2C)cc(F)c1CNCCO [Example 1.389]		pIC50 [1]: 5.00 to 6.00
COc1cc(-c2cccc(-c3cccc(NC(=O)c4ccc(N)nc4)c3C)c2C)cc(F)c1CNCCO [Example 1.390]		pIC50 [1]: 5.00 to 6.00
COc1cc(-c2cccc(-c3cccc(NC(=O)N4CCNCC4)c3C)c2C)cc(F)c1CN [Example 1.392]		pIC50 [1]: 6.00 to 8.00
COc1cc(-c2cccc(-c3cccc(NC(=O)C4CCN(CCO)CC4)c3C)c2C)cc(F)c1CN [Example 1.393]		pIC50 [1]: 6.00 to 8.00
COc1cc(-c2cccc(-c3cccc(NC(=O)C4CCCNC4)c3C)c2C)cc(F)c1CN (centres unmarked) [Example 1.394]		pIC50 [1]: 5.00 to 6.00
COc1cc(-c2cccc(-c3cccc(NC(=O)C4CCN(CCO)CC4)c3C)c2C)cc(F)c1CNCCO [Example 1.395]		pIC50 [1]: 6.00 to 8.00
COc1cc(-c2cccc(-c3cccc(NC(=O)c4ccccn4)c3C)c2C)cc(F)c1CNCCO [Example 1.396]		pIC50 [1]: > 8.00
COc1cc(-c2cccc(-c3cccc(NC(=O)C4CCNCC4)c3C)c2C)cc(F)c1CNCCO [Example 1.397]		pIC50 [1]: 6.00 to 8.00
CNCc1c(F)cc(-c2cccc(-c3cccc(NC(=O)c4nc5c(s4)CN(CCO)CC5)c3F)c2C)cc1OC [Example 1.398]		pIC50 [2]: > 8.00
COc1cc(-c2cccc(-c3cccc(NC(=O)c4ccc(CNCCO)cn4)c3C)c2C)cc(F)c1CNCCS(=O)(=O)O [Example 1.399]		pIC50 [2]: > 8.00
COc1cc(-c2cccc(-c3cccc(NC(=O)c4nc5c(s4)CN(CCO)CC5)c3F)c2C)cc(F)c1CNCCO [Example 1.400]		pIC50 [2]: > 8.00
COc1cc(-c2cccc(-c3cccc(NC(=O)c4ccc(CNCCO)cn4)c3C)c2C)cc(F)c1CNCCCC(=O)O [Example 1.401]		pIC50 [2]: > 8.00
COc1cc(-c2cccc(-c3cccc(NC(=O)c4ccc(CN[C@@](C)(CO)C(=O)O)cn4)c3C)c2C)cc(F)c1CN[C@@](C)(CO)C(=O)O [Example 1.402]		pIC50 [2]: > 8.00
COc1cc(-c2cccc(-c3cccc(NC(=O)c4nc5c(s4)CNCC5)c3F)c2C)cc(F)c1CNCCCC(=O)O [Example 1.403]		pIC50 [2]: > 8.00
COc1cc(-c2cccc(-c3cccc(NC(=O)c4ccc(CNCCO)cn4)c3C)c2C)cc(F)c1CNCCO [Example 1.404]		pIC50 [2]: > 8.00
COc1c(CNC[C@@H]2CCC(=O)N2)ccc(-c2cccc(-c3cccc(NC(=O)c4cn(C)c(=O)n(C)c4=O)c3Cl)c2Cl)c1F [Example 2.001]	> 8.00	
COc1cc(-c2cccc(-c3cccc(NC(=O)c4cn(C)c(=O)n(C)c4=O)c3Cl)c2Cl)cc(F)c1CN1CC2(CCNC2=O)C1 [Example 2.002]	> 8.00	
COc1cc(-c2cccc(-c3cccc(NC(=O)c4cn(C)c(=O)n(C)c4=O)c3Cl)c2Cl)cc(F)c1CN1CCC[C@@H](C(=O)O)C1 [Example 2.003]	> 8.00	
COc1cc(-c2cccc(-c3cccc(NC(=O)c4cn(C)c(=O)n(C)c4=O)c3Cl)c2Cl)cc(F)c1CN1CCC(C(=O)O)CC1 [Example 2.004]	> 8.00	
COc1cc(-c2cccc(-c3cccc(NC(=O)c4cn(C)c(=O)n(C)c4=O)c3Cl)c2Cl)cc(F)c1CN1CCC(C)(C(=O)O)CC1 [Example 2.005]	> 8.00	

Compound	pIC50 [3]	other results
COc1cc(-c2cccc(-c3cccc(NC(=O)c4cn(C)c(=O)n(C)c4=O)c3C)c2Cl)cc(F)c1CN1CCC2(CCNC2=O)CC1 [Example 2.006]	6.00 to 8.00	
COc1cc(-c2cccc(-c3cccc(NC(=O)c4cn(C)c(=O)n(C)c4=O)c3C)c2Cl)cc(F)c1CN1CCC2(CCNC2=O)C1 (centres unmarked) [Example 2.007]	> 8.00	
COc1cc(-c2cccc(-c3cccc(NC(=O)c4cn(C)c(=O)n(C)c4=O)c3Cl)c2Cl)cc(F)c1CN1CC(C)(C(=O)O)C1 [Example 2.008]	> 8.00	
COc1cc(-c2cccc(-c3cccc(NC(=O)c4cn(C)c(=O)n(C)c4=O)c3Cl)c2Cl)cc(F)c1CN1CCC(C)(O)CC1 [Example 2.009]	> 8.00	
COc1cc(-c2cccc(-c3cccc(NC(=O)c4cn(C)c(=O)n(C)c4=O)c3Cl)c2Cl)cc(F)c1CN1CC[C@@H](C(=O)O)C1 [Example 2.010]	> 8.00	
COc1cc(-c2cccc(-c3cccc(NC(=O)c4cn(C)c(=O)n(C)c4=O)c3C)c2C)cc(F)c1CN1CC2(CCNC2=O)C1 [Example 2.011]	> 8.00	
COc1cc(-c2cccc(-c3cccc(NC(=O)c4cn(C)c(=O)n(C)c4=O)c3C)c2Cl)cc(F)c1CN1CC2(CCNC2=O)C1 [Example 2.012]	> 8.00	
COc1cc(-c2cccc(-c3cccc(NC(=O)c4cn(C)c(=O)n(C)c4=O)c3C)c2Cl)cc(F)c1CN1CCC(C)(C(=O)O)CC1 [Example 2.013]	> 8.00	
COc1cc(-c2cccc(-c3cccc(NC(=O)c4cn(C)c(=O)n(C)c4=O)c3C)c2C)cc(F)c1CN1CC(C(=O)O)C1 [Example 2.014]	> 8.00	
COc1cc(-c2cccc(-c3cccc(NC(=O)c4cn(C)c(=O)n(C)c4=O)c3C)c2Cl)cc(F)c1CN1CCC[C@@H](C(=O)O)C1 [Example 2.015]	> 8.00	
COc1cc(-c2cccc(-c3cccc(NC(=O)c4cn(C)c(=O)n(C)c4=O)c3C)c2Cl)cc(F)c1CN1CC[C@@H](O)C1 [Example 2.016]	> 8.00	
COc1cc(-c2cccc(-c3cccc(NC(=O)c4cn(C)c(=O)n(C)c4=O)c3C)c2Cl)cc(F)c1CN1CC(C)(C(=O)O)C1 [Example 2.017]	> 8.00	
COc1cc(-c2cccc(-c3cccc(NC(=O)c4cn(C)c(=O)n(C)c4=O)c3C)c2Cl)cc(F)c1CN1CCC(C)(O)CC1 [Example 2.018]	> 8.00	
COc1cc(-c2cccc(-c3cccc(NC(=O)c4cn(C)c(=O)n(C)c4=O)c3C)c2Cl)cc(F)c1CN1CCC(C(=O)O)CC1 [Example 2.019]	> 8.00	
COc1cc(-c2cccc(-c3cccc(NC(=O)c4cn(C)c(=O)n(C)c4=O)c3C)c2Cl)cc(F)c1CN1CCC(O)CC1 [Example 2.020]	> 8.00	
COc1cc(-c2cccc(-c3cccc(NC(=O)c4cn(C)c(=O)n(C)c4=O)c3C)c2Cl)cc(F)c1CN1CC[C@@H](C(=O)O)C1 [Example 2.021]	> 8.00	
COc1cc(-c2cccc(-c3cccc(NC(=O)c4c[nH]c(=O)n(C)c4=O)c3Cl)c2Cl)cc(F)c1CN[C@H]1CCOC[C@H]1OC [Example 2.022]	> 8.00	
COc1cc(-c2cccc(-c3cccc(NC(=O)c4c[nH]c(=O)n(C)c4=O)c3C)c2Cl)cc(F)c1CN[C@H]1CCOC[C@H]1OC [Example 2.023]	> 8.00	
COc1cc(-c2cccc(-c3cccc(NC(=O)c4cn(C)c(=O)n(C)c4=O)c3C)c2Cl)cc(F)c1CN[C@H]1CCOC[C@H]1OC [Example 2.024]	> 8.00	
COc1cc(-c2cccc(-c3cccc(NC(=O)c4cn(C)c(=O)n(C)c4=O)c3Cl)c2Cl)cc(F)c1CN[C@H]1CCOC[C@H]1OC [Example 2.025]	> 8.00	

Compound	pIC50 [3]	other results
COc1cc(-c2cccc(-c3cccc(NC(=O)c4c[nH]c(=O)n(C)c4=O)c3Cl)c2Cl)cc(F)c1CNCC1(C(N)=O)CC1 [Example 2.026]	> 8.00	
COc1cc(-c2cccc(-c3cccc(NC(=O)c4c[nH]c(=O)n(C)c4=O)c3Cl)c2Cl)cc(F)c1CN[C@H]1CCC(=O)NC1 [Example 2.027]	> 8.00	
COc1cc(-c2cccc(-c3cccc(NC(=O)c4c[nH]c(=O)n(C)c4=O)c3Cl)c2Cl)cc(F)c1CN[C@H]1CCOC[C@H]1O [Example 2.029]	> 8.00	
COc1cc(-c2cccc(-c3cccc(NC(=O)c4c[nH]c(=O)n(C)c4=O)c3Cl)c2Cl)cc(F)c1CN[C@@H]1CCOC[C@@H]1O [Example 2.030]	> 8.00	
COc1cc(-c2cccc(-c3cccc(NC(=O)c4c[nH]c(=O)n(C)c4=O)c3C)c2Cl)cc(F)c1CNCC1(C(N)=O)CC1 [Example 2.031]	> 8.00	
COc1cc(-c2cccc(-c3cccc(NC(=O)c4c[nH]c(=O)n(C)c4=O)c3C)c2Cl)cc(F)c1CN[C@H]1CCC(=O)NC1 [Example 2.032]	> 8.00	
COc1cc(-c2cccc(-c3cccc(NC(=O)c4c[nH]c(=O)n(C)c4=O)c3C)c2Cl)cc(F)c1CN[C@@H]1CNC(=O)C1 [Example 2.033]	> 8.00	
COc1cc(-c2cccc(-c3cccc(NC(=O)c4c[nH]c(=O)n(C)c4=O)c3C)c2Cl)cc(F)c1CN[C@H]1CCOC[C@H]1O [Example 2.034]	> 8.00	
COc1cc(-c2cccc(-c3cccc(NC(=O)c4c[nH]c(=O)n(C)c4=O)c3C)c2Cl)cc(F)c1CN[C@@H]1CCOC[C@@H]1O [Example 2.035]	> 8.00	
CCOc1cc(-c2cccc(-c3cccc(NC(=O)c4cn(C)c(=O)n(C)c4=O)c3Cl)c2Cl)cc(F)c1CN[C@H]1CCC(=O)NC1 [Example 2.036]	> 8.00	
CCOc1cc(-c2cccc(-c3cccc(NC(=O)c4cn(C)c(=O)n(C)c4=O)c3Cl)c2Cl)cc(F)c1CN[C@@H]1CCOC[C@@H]1O [Example 2.037]	> 8.00	
CCOc1cc(-c2cccc(-c3cccc(NC(=O)c4cn(C)c(=O)n(C)c4=O)c3C)c2Cl)cc(F)c1CN[C@H]1CCC(=O)NC1 [Example 2.038]	6.00 to 8.00	
CCOc1cc(-c2cccc(-c3cccc(NC(=O)c4cn(C)c(=O)n(C)c4=O)c3C)c2Cl)cc(F)c1CN[C@@H]1CCOC[C@@H]1O [Example 2.039]	> 8.00	
COc1cc(-c2cccc(-c3cccc(NC(=O)c4cncn(C)c4=O)c3C)c2Cl)cc(F)c1CN[C@H]1CCC(=O)NC1 [Example 2.041]	> 8.00	
COc1cc(-c2cccc(-c3cccc(NC(=O)c4cncn(C)c4=O)c3C)c2Cl)cc(F)c1CN[C@@H]1CCOC[C@@H]1O [Example 2.042]	> 8.00	
COc1cc(-c2cccc(-c3cccc(NC(=O)c4cn(C)c(=O)n(C)c4=O)c3C)c2Cl)cc(F)c1CN(C)[C@@H]1CCOC1 [Example 2.043]	> 8.00	
COc1cc(-c2cccc(-c3cccc(NC(=O)c4cn(C)c(=O)n(C)c4=O)c3C)c2Cl)cc(F)c1CNCC(C)(C)O [Example 2.045]	> 8.00	
COc1cc(-c2cccc(-c3cccc(NC(=O)c4cn(C)c(=O)n(C)c4=O)c3C)c2Cl)cc(F)c1CN1CC(C(=O)O)C1 [Example 2.046]	> 8.00	
COc1cc(-c2cccc(-c3cccc(NC(=O)c4cn(C)c(=O)n(C)c4=O)c3C)c2Cl)cc(F)c1CN1CCCC[C@H]1C(=O)O [Example 2.047]	> 8.00	
